In ChEMBL document CHEMBL1151256, “New alkaloids and a tetraflavonoid from Cephalotaxus wilsoniana” (J Nat Prod, 2004):
≈ marks a conversion by molar mass, not a printed value.

What was measured:
[1] = Cytotoxicity against human Hep3B cells after 6 days by MTT assay; assay type: functional, cell-based, Hep 3B2; settings: 144 h
MCF7 = assay: Cytotoxicity against human MCF7 cells after 6 days by MTT assay; assay type: functional, cell-based; settings: MCF7, 144 h
HT-29 = assay: Cytotoxicity against human HT-29 cells after 6 days by MTT assay; assay type: functional, cell-based; settings: HT-29, 144 h
HepG2 = assay: Cytotoxicity against human HepG2 cells after 6 days by MTT assay; assay type: functional, cell-based; settings: HepG2, 144 h

**Q.** Which IC50 [1] does the source give for `COc1cc2c(cc1OC)C13C[C@@H](OC)C=C[C@@]14O[C@H]4C(=O)N3CCC2` (some centres undefined) here?
**A.** 52 µg/mL (≈ 145 µM)

**Q.** And the IC50 (MCF7)?
**A.** 42 µg/mL (≈ 118 µM)

**Q.** What about the IC50 (HT-29) of the same compound?
**A.** 24.4 µg/mL (≈ 68.3 µM)

**Q.** What about the IC50 (HepG2) of the same compound?
**A.** 52 µg/mL (≈ 145 µM)
